Target: T1, FolE2 (Burkholderia thailandensis, UniProt Q2T7N4)
T1 construct: fused on or other part: N-terminal 6xHis tag from pET-28b(+) (NdeI/SacI)
Experiment: biochemical
Parameters: species or system B. thailandensis
Conditions: read-out: apparent Ki

Question: How did the Ki turn out when `C=C1CC[C@H]2C(=C)CC[C@H]3C(=C)C(=O)O[C@@H]3[C@@H]12` [DHL, dehydrocostus lactone] was run?
Answer: 87 ± 21 µM
